Entries after “also recorded” stand apart in the source; their conditions may differ. Read-outs that look alike come from different tables or passages of the source.
Assays:
Assay type in all cases: cell-based
[1] = Cytotoxicity (resazurin) growth inhibition assay; settings: human
Method: The cytotoxicity of six compounds selected from in-silico screening was analyzed through a resazurin assay. Aliquots of 10^4 CYP3A4-overexpressing HepG2 cells were seeded per well into 96-well plates. Cells were treated with different concentrations of the selected compounds ranging from 0.003 to 100 µM in a total volume of 200 µL for 72 h. Then, 20 µL/well of resazurin 0.01% w/v (Sigma Aldrich, Taufkirchen, Germany) was added. The fluorescence intensity was measured with the Infinite M200 Pro-plate reader (Tecan, Crailsheim, Germany). Dose–response curves were generated from three independent experiments for each compound and 50% inhibition concentrations (IC50) were calculated. The analysis was represented using Prism 6 GraphPad Software (La Jolla, CA, USA).

[2] = test system: CYP3A4-overexpressing HepG2 cells; experiment: RNA-sequencing and gene set enrichment analysis; settings: IC50 concentration, 24 h; for number of 'DNA-templated DNA replication' genes influenced by only one compound: Venn diagram; for activated pathway (gene set enrichment, GO Biological Process) / number of genes affected in 'nuclear chromosome segregation' pathway / number of genes involved in 'inflammatory response' pathway / number of genes targeted in 'DNA-templated DNA replication' pathway / suppressed pathway (gene set enrichment, GO Biological Process): vs DMSO control
Method: Aliquots of 5 × 10^5 CYP3A4-overexpressing HepG2 cells were seeded into six-well-plates 24 h before treatment. Cells were treated with previously calculated IC50 concentrations of the compounds of interest. Control (ctrl) cells were treated with 0.2% DMSO. After 24 h incubation, the cells were harvested. RNA extraction was performed with the […] RNA Mini Kit (Invitek Molecular GmbH, Berlin, Germany), according to the manufacturer's instruction. Briefly, the cell pellet was lysed with 350 μL Lysis Solution and treated with β-mercaptoethanol. […] After several washing steps, RNA was eluted with 60 μL of Elution Buffer R and the concentration and purity measured with NanoDrop. Next-generation sequencing was conducted by […] GmbH, Mainz, Germany. The quality of the extracted RNA was verified by the company with a 2100 Bioanalyzer system (Agilent Technologies, CA, USA). After mRNA isolation and library preparation using the NEBNext^© UltraTM II Directional RNA Library Prep Kit (New England Biolabs, MA, USA), RNA sequencing of around 25 mio PE reads (2 × 12.5 M reads, 2 × 150 nt) was performed with the Illumina NextSeq 2000TM system. Each treatment and control group included two replicates. Quality control on the sequencing data was performed with the FastQC tool (0.12.0, https://www.bioinformatics.babraham.ac.uk/projects/fastqc/). Transcript abundance estimates were computed with Salmon (version 1.5.0) (Patro et al. [2017]) with a transcriptome index generated from the GENCODE (version 38), and subsequently summarized to gene level with the […] package (version 1.16.0) (Love et al. [2020]). The exploration, modelling, and interpretation of the expression data followed previously described protocols (Ludt et al. [2022]). Exploratory data analysis was executed with the pcaExplorer package (version 2.24.0) (Marini and Binder [2019]). Differential expression analysis was performed with DESeq2 package (version 1.38.3) (Love et al. [2014]), setting the false discovery rate (FDR) cutoff to 0.05. Accurate estimation of the effect sizes (described as log2 fold change) was finalized using the […] shrinkage estimator (version 1.20.0) (Zitovsky and Love [2020]). Subsequent analyses included Gene Ontology pathway enrichment by topGO (version 2.50.0) (Alexa et al. [2006])-using all expressed genes as background dataset and the ideal package (version 1.22.0) (Ludt et al. [2022])-and by clusterProfiler (version 4.6.0) (Wu et al. [2021]) with default settings using the log fold change as input. […] [2021]). Gene expression profiles were plotted as heatmaps (color-coded standardized Z scores for the expression values, after variance stabilizing transformation) to simplify comparison across samples.

[3] = test system: CYP3A4-overexpressing HepG2 cells; experiment: Flow cytometric cell cycle analysis; settings: IC50 concentration, 24 h; for S-phase cells population: control 12.47 ± 0.83%; for cells in G2/M phase: control 18.70 ± 0.69%
Method: After 24 h of incubation, cells were fixed with ethanol and stored at −20 °C overnight. […] The measurement was performed using a BD LSRFortessa™ Cell Analyzer (Becton–Dickinson, Heidelberg, Germany). The results were analyzed using FlowJo software (Celeza, Olten, Switzerland).

[4] = CYP3A4-overexpressing HepG2 cells, 72 h, resazurin, mean ± SD of three independent experiments, read-out: IC50
[5] = 72 h, resazurin, mean ± SD of three independent experiments, read-out: IC50

Cc1cc(Cc2cc(C)cc(C(C)(C)C)c2O)c(O)c(C(C)(C)C)c1 [compound 4, 2,2′-methylene bis(6-tert-butyl-4-methylphenol)]
IC50 at 72 h [1]: 17.4 µM
number of 'DNA-templated DNA replication' genes influenced by only one compound [2]: 10 genes
activated pathway (gene set enrichment, GO Biological Process) [2]: icosanoid metabolic process; also recorded: anion transport; also recorded: response to metal ions; also recorded: regulation of growth; also recorded: response to cytokines; also recorded: inflammatory response
number of genes affected in 'nuclear chromosome segregation' pathway [2]: 103 genes
number of genes involved in 'inflammatory response' pathway [2]: 76 genes
number of genes targeted in 'DNA-templated DNA replication' pathway [2]: 78 genes
suppressed pathway (gene set enrichment, GO Biological Process) [2]: regulation of chromosome segregation; also recorded: regulation of mitotic sister chromatid separation; also recorded: nuclear chromosome segregation; also recorded: chromosome organization; also recorded: metaphase/anaphase transition of mitotic cell cycle; also recorded: response to vitamin
S-phase cells population [3]: 6.26 ± 1.31%
cells in G2/M phase [3]: 26.70 ± 8.40%

CC(C)(C)CC(C)(C)c1ccc(O)c(-n2nc3ccccc3n2)c1 [compound 3, octrizole]
IC50 at 72 h [1, 4]: 63.8 ± 2.21 µM

Cc1cc(Cc2cc(C)cc(C3CCCCC3)c2O)c(O)c(C2CCCCC2)c1 [compound 6, 2,2′-methylene bis(6-cyclohexyl-4-methylphenol)]
IC50 at 72 h [1, 4]: 18 ± 1.21 µM
number of 'DNA-templated DNA replication' genes influenced by only one compound [2]: 5 genes
activated pathway (gene set enrichment, GO Biological Process) [2]: response to nutrients levels; also recorded: regulation of extent of growth; also recorded: response to wounding; also recorded: inflammatory response; also recorded: cytokine production
number of genes affected in 'nuclear chromosome segregation' pathway [2]: 83 genes
number of genes involved in 'inflammatory response' pathway [2]: 90 genes
number of genes targeted in 'DNA-templated DNA replication' pathway [2]: 72 genes
suppressed pathway (gene set enrichment, GO Biological Process) [2]: regulation of chromosome segregation; also recorded: regulation of mitotic sister chromatid separation; also recorded: nuclear chromosome segregation; also recorded: chromosome organization
S-phase cells population [3]: 7.06 ± 5.94%
cells in G2/M phase [3]: 25.77 ± 0.95%

CC(C)COC(=O)c1ccccc1C(=O)OCC(C)C [compound 2, diisobutyl phthalate]
IC50 at 72 h [1, 5]: > 100 µM

CC(c1cc(C(C)(C)C)cc(C(C)(C)C)c1O)c1cc(C(C)(C)C)cc(C(C)(C)C)c1O [compound 5, 1,1-bis(3,5-di-tert-butyl-2-hydroxyphenyl)ethane]
IC50 at 72 h [1, 4]: 20 ± 1.68 µM
number of 'DNA-templated DNA replication' genes influenced by only one compound [2]: 8 genes
activated pathway (gene set enrichment, GO Biological Process) [2]: autophagy; also recorded: process utilizing autophagic mechanism; also recorded: response to endoplasmic reticulum stress; also recorded: cytokine production; also recorded: Golgi vesicle transport; also recorded: response to growth factors; also recorded: cellular response to growth factor stimulation
number of genes targeted in 'DNA-templated DNA replication' pathway [2]: 68 genes
suppressed pathway (gene set enrichment, GO Biological Process) [2]: cholesterol metabolic process; also recorded: cholesterol biosynthetic process; also recorded: secondary alcohol biosynthetic process; also recorded: sterol metabolic process; also recorded: alcohol metabolic process; also recorded: small molecule metabolic process; also recorded: organic hydroxy compound metabolic process
S-phase cells population [3]: 10.88 ± 3.84%
cells in G2/M phase [3]: 25.13 ± 2.25%

O=C(OC1CCCCC1)c1ccccc1C(=O)OC1CCCCC1 [compound 1, dicyclohexyl phthalate]
IC50 at 72 h [1, 5]: 72.7 µM

From article PMC10794370, “Impact of plastic-related compounds on the gene expression signature of HepG2 cells transfected with CYP3A4” (Archives of Toxicology, 2023)
